Assay results as given in patent EP4692059A1, “CATIONIC LIPID HAVING DISULFIDE BOND” (Tohoku University, priority 2023, dated 2024).

Experiments:
liver = assay: In vivo gene expression, luciferase luminescence in the liver after tail vein administration (Experimental Example 7); details: BALB/c mouse, mRNA 0.05 mg/kg; for amount of luminescence (photons/sec) in liver: tail vein, 4.5 hr after administration, LNP cationic lipid:DOPC:Chol:DMG-PEG2k = 52.5:7.5:40:1.5, prepared as in Experimental Example 6; for relative amount of luminescence: liver luminescence relative to cationic lipid of Comparative Example
Experimental: LNP encapsulating mRNA that expresses luciferase (cationic lipid:DOPC:Chol:DMG-PEG2k = 52.5:7.5:40:1.5 (molar ratio)) was prepared by the method described in [Experimental Example 6], 1.
The prepared each mRNA-encapsulating LNP dispersion was administered from the tail vein of BALB/c mouse (male, 5-week-old). The dose of mRNA was set to 0.05 mg per 1 kg body weight of the mouse, and the dose of the mRNA-encapsulating LNP dispersion was set to 10 µL per 1 g body weight of the mouse. After 4.5 hr from the administration of the mRNA-encapsulating LNP dispersion, a PBS solution of D-luciferin potassium was administered into the abdominal cavity of the mouse. The dose of D-luciferin potassium was set to 3 mg per mouse, and the dose of the PBS solution of D-luciferin potassium was set to 200 µL per mouse. After 15 min from the administration of the PBS solution of D-luciferin potassium, the mouse was euthanized, and the liver was isolated. The luminescence in the liver was quantified using an in vivo imaging system (IVIS) with an exposure of 10 sec. The amount of luminescence in the liver was quantified by image analysis using Live Imaging software attached to IVIS. The amount of luminescence (photons/sec) was calculated from the acquired image and used as an index of gene expression activity. The cationic lipids used, the luminescence intensity in the liver, and the relative luminescence intensity (= luminescence intensity in the liver when cationic lipid of Example was used/luminescence intensity in the liver when cationic lipid of Comparative Example was used) are shown in Table 9. For example, "3.94E+09" means "3.94×10^9". […]

[1] = Particle size, PdI and zeta potential of mRNA-encapsulating LNPs by dynamic light scattering (Experimental Example 2); type: physicochemical; details: mRNA-encapsulating LNP containing the cationic lipid; for zeta potential (mV): dispersion in PBS (Table 5-3); for PdI / particle size (nm): dispersion in PBS, dynamic light scattering (Table 5-3)
Experimental: An acidic buffer solution (total amount: 1080 µL) of nucleic acid was prepared by weighing 7.2 µg of mRNA solution (0.6 mg/mL) in a 5 mL tube and adding acidic malate buffer (20 mM, pH 3.0).
An acidic buffer solution of nucleic acid and an ethanol solution of lipid were each weighed in a syringe.
The particle size, PdI (Polydispersity Index), and zeta potential of the mRNA-encapsulating LNP prepared by the method of the above-mentioned 1 were measured by a dynamic light scattering method (Zetasizer Nano; Malvern).

[2] = Particle size, PdI and zeta potential of mRNA-encapsulating LNPs by dynamic light scattering (Experimental Example 6); type: physicochemical; details: mRNA-encapsulating LNP; for zeta potential (mV): cationic lipid:DOPC:Chol=49:7.5:42.5:1, dispersion in TBS (Tables 8-1, 8-2); for PdI / particle size (nm): cationic lipid:DOPC:Chol=49:7.5:42.5:1, dispersion in TBS, dynamic light scattering (Tables 8-1, 8-2)
Experimental: An acidic buffer solution (total amount: 1300 µL) of nucleic acid was prepared by weighing 6.5 µg of mRNA solution (0.6 mg/mL) in a 5 mL tube and adding acidic citrate buffer (20 mM, pH 5.0).
An acidic buffer solution of nucleic acid and an ethanol solution of lipid were each weighed in a syringe. […] The obtained concentrate was diluted with TBS to a lipid concentration of 2 mM to give a dispersion containing LNP.
The particle size, PdI (Polydispersity Index), and zeta potential of the mRNA-encapsulating LNP prepared by the method of the above-mentioned 1 were measured by a dynamic light scattering method (Zetasizer Nano; Malvern). […]

SMILES	amount of luminescence (photons/sec) in liver (liver) [photons/sec]	relative amount of luminescence (liver)	zeta potential (mV) [1] [mV]	PdI [1]	particle size (nm) [1] [nm]	zeta potential (mV) [2] [mV]	PdI [2]	particle size (nm) [2] [nm]
CCCCCCC(C/C=C\CCCCCCCC(=O)Oc1ccc(CC(=O)OCCC2CCN(CCSSCCN3CCC(CCOC(=O)Cc4ccc(OC(=O)CCCCCCC/C=C\CC(CCCCCC)OC(=O)c5ccc(OCC)c(OCC)c5)cc4)CC3)CC2)cc1)OC(=O)c1ccc(OCC)c(OCC)c1 (stereo not shown) [compound 173]	9.37E+09	4.57	-4.4	0.070	99.5	-4.83	0.035	126.1
CCCCCCCC/C=C\CCCCCCCC(=O)Oc1ccc(CC(=O)OCCC2CCN(CCSSCCN3CCC(CCOC(=O)Cc4ccc(OC(=O)CCCC(=O)OC(CC(=O)OCCCC)(CC(=O)OCCCC)CC(=O)OCCCC)cc4)CC3)CC2)cc1 [compound 58]	1.72E+10	8.40	-3.5	0.065	96.6	-4.2	0.071	90.0
